For the experiment, the target named is Tyrosine-protein kinase ABL1 (Homo sapiens, UniProt P00519). As to the kind of experiment: Kinase Assay: c-abl: ADP-Glo assay kit was purchased from Promega. Magnesium chloride (MgCl2), bovine serum albumin (BSA), ethylene glycol-bis(p-aminoethyl ether)-N,N,N′,N′-tetraacetic acid (EGTA), triton X-100, 1,4-dithiothreitol (DTT) and dimethyl sulfoxide (DMSO) were purchased from Sigma-Aldrich. HEPES buffer was purchased from Gibco. ABL1 kinase and Abltide were purchased from Signalchem.c-Abl kinase activity was measured by Promega's ADP-Glo™ Assay. In this assay, His-tagged recombinant human ABL1 (0.25 ng/μl) is incubated with 5 μL of compounds (0.5% DMSO), 5 μL of Abltide (0.01 μg/μl) and 5 μL of ATP (25 μM) in buffer (50 mM HEPES, 7.5; 10 mM MgCl2; 1 mM EGTA; 0.05% BSA; 0.01% Triton X-100; 2 mM DTT). The assay was started by incubating the reaction mixture in a 96-well plate at 30° C. for 30-min. After the incubation, 25 μL ADP-Glo reagent was added and the reaction was incubated at room temperature for 40-min to stop the reaction and degrade residual ATP. The ADP product was then converted to ATP by adding 50 μL per well of detection reagent. Luminescence was detected after 30-min room temperature incubation with the Molecular device I3X plate reader. The IC50 values were calculated from a series of percent inhibition values determined at a range of inhibitor concentration using software routines as implemented in the GraphPad Prism 7 software and Sigma Plot 13.0.
Chain of Tyrosine-protein kinase ABL1 (P00519 whole entry): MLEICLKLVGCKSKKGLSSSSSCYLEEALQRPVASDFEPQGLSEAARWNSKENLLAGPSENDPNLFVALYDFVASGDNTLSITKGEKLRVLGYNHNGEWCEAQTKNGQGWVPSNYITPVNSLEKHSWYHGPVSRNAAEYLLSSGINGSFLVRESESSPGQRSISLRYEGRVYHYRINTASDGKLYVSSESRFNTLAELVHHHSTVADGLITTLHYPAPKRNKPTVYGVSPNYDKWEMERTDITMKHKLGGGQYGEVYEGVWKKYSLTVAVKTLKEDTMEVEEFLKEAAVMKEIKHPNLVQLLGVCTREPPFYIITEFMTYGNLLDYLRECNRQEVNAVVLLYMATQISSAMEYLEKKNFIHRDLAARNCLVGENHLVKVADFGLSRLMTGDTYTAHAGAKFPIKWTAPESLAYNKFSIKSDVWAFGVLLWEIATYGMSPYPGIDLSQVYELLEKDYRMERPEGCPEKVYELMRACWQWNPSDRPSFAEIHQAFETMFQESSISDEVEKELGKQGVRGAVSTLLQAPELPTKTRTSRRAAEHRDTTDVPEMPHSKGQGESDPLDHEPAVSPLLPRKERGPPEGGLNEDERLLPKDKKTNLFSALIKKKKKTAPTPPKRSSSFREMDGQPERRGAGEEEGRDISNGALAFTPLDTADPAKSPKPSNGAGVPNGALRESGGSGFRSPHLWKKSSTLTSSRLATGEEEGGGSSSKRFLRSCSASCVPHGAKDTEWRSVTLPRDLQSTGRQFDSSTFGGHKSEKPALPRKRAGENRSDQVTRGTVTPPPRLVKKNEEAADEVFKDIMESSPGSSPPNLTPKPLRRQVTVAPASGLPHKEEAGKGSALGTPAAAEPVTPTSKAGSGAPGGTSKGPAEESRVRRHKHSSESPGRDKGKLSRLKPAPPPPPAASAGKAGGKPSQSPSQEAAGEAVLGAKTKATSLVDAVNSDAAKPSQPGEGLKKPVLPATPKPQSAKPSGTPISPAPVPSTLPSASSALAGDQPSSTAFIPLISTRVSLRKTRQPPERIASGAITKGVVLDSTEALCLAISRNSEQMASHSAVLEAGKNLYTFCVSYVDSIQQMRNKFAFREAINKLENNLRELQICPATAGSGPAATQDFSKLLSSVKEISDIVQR

Usually IC50 stands for the concentration needed to halve the response being measured.

Molecules are shown by their SMILES.

Turning to `Cc1cccc(C)c1-c1ccc2nc(NC(=O)[C@@H]3C[C@@H]3F)cn2c1`, the IC50 was less than 10 nM.

As to `COc1ccncc1-c1ccc2nc(NC(=O)[C@@H]3C[C@@H]3F)cn2c1`, the IC50 is less than 10 nM.

Consider `Cc1c(F)cccc1-c1ccc2nc(NC(=O)C3CC3(F)F)cn2c1` (centres undefined), for which the IC50 was less than 10 nM.

Take `Cc1cc2scnc2cc1-c1ccc2nc(NC(=O)[C@@H]3C[C@@H]3F)cn2c1`: the IC50 is less than 10 nM.
